“And” between values parts separate entries of the source, which are not always exact repeats. Identical values can stand only once.
Experiments:
[1] = tested on: latent HIV in JLat 10.6-GFP, 2D10 and 5A8 cells; test: HIV reactivation using latent reporter cell lines (GFP expression by flow cytometry); assay type: cell-based, human
Text: The experiment analyzed the ability of DEB10-1143 at reactivating latent HIV using three well-characterized latent T cell lines—JLat 10.6-GFP, 2D10 and 5A8 (Jordan A, Bisgrove D, Verdin E (2003) EMBO J 22(8): 1868-1877. doi: 10.1093/emboj/cdg188. PMID: 12682019; Sakane N, Kwon HS, Pagans S, Kaehlcke K, Mizusawa Y, Kamada M, et al. (2011) PLoS Pathog 7(8): e1002184. PMID: 21876670; Pearson R, Kim Y K, Hokello J, Lassen K, Friedman J, Tyagi M, et al. (2008) J Virol 82(24): 12291-12303. PMID: 18829756). These cell lines contain part of the HIV genome and the GFP reporter gene and are unable to produce infective HIV particles. Drug titration and kinetic studies were conducted. Debio-1143 was tested alone or in combination with the current antiretroviral therapy (ART), consisting of 20 μM tenofovir disoproxil fumarate [TDF], 10 μM emtricitabine [FTC] and 1 μM raltegravir [RAL]. ART and DEB10-1143 were added simultaneously to cells.
Method: Cells (100,000 cells/100 μL) were treated in triplicate for 0 and 72 h with increasing concentrations of DEB10-1143 (0 to 20.5 μM) used alone or in combination with ART (see above). ART and DEB10-1143 were added simultaneously to cells. Cells were analyzed for GFP expression by flow cytometry at the indicated time points counting all cells per replicate, and reported as % GFP+cells.

[2] = tested on: latent HIV in resting CD4+ T-lymphocytes; test: HIV reactivation in resting CD4+ T-lymphocytes derived from ART-treated HIV patients (HIV RNA in supernatant, qPCR); assay type: cell-based, human
Procedure: The experiments of this example analyzed the ability of DEB10-1143 at reactivating latent HIV in resting CD4+ T-lymphocytes isolated from peripheral blood monocytic cells (PBMCs) derived from HIV patients currently under ART. Drug titration and kinetic studies were conducted. Debio-1143 was tested alone or in combination with ART.
Method: Resting CD4+ T cells were isolated using the EasySep™ Human Resting CD4+ T Cell Isolation Kit, which is designed to isolate resting CD4+ T cells from fresh or previously frozen PBMCs by immunomagnetic negative selection. The EasySep™ procedure involves labeling unwanted cells with antibody complexes and magnetic particles. The magnetically labeled cells are separated from the untouched desired cells by using an EasySep™ magnet and simply pouring or pipetting the desired cells into a new tube. Isolated resting CD4+ T cells (50,000 cells/50 μL) were treated in duplicate for 0, 24, 48 and 72 h with increasing concentrations of DEB10-1143 (0 to 20.5 μM) used alone or in combination with ART (20 μM TDF, 10 μM FTC and 1 μM Raltegravir). Amounts of virions released from cells were quantified at the indicated time points by quantifying HIV RNA levels (HIV RNA copies/mL) in supernatant of cell culture using one-step reverse transcriptase quantitative real-time PCR (ABI custom TaqMan Assays-by-Design) according to the manufacturer's instructions. Primers were 5-[…]-3 and 5-[…]-3, and MGB probe 5-FAM-[…]-Q-3, where FAM is 6-carboxyfluorescein.

HIV-1 (JR-CSF) = test: Efficacy study in HIV-1 infected humanized BLT mice: viral RNA levels in organ reservoirs (qPCR); assay type: in vivo
Text: Methods: Humanized BLT mice were generated by implanting human fetal liver and thymus tissues under the kidney capsule of an immunodeficient NOD scid gamma (NSG=NOD.Cg-Prkdc^scidII12rg^tm1Wjl/SzJ) mouse, followed by an administration of autologous human fetal liver CD34+ cells (human hematopoietic stem cells). In BLT mice, T cell education occured in the human thymic tissue, resulting in complete systemic reconstitution of all major human hematopoietic lineages including T, B, monocyte/macrophage, dendritic, and natural killer cells. The extensive systemic and genital mucosal reconstitution with human lymphoid cells rendered female humanized BLT mice susceptible to both vaginal and rectal HIV infection.
Humanized BLT mice were generated by implanting 1-mm^3 pieces of human fetal liver and thymus tissues (Advanced Bioscience Resources) under the kidney capsule in 6 to 8-week-old female NSG mice (Jackson Laboratories) bred at The Scripps Research Institute (TSRI). Each cohort was produced with tissues from a single donor. CD34+ HSPC were purified from autologous fetal liver tissue, isolated by magnetic bead selection for CD34+ cells (Miltenyi), phenotyped cytometrically for engraftment success (CD34+, HLA DR-), and cryopreserved until injection (200,000 CD34+ cells) into mice 3 weeks after thymus/liver implantation. Human reconstitution was verified by flow cytometry (CD45+, CD3+, CD4+ and CD8+) in peripheral blood of the mice.
R5 HIV (JR-CSF) was produced by 293T transfection and quantified by p24 ELISA. Humanized mice were infected with JR-CSF (200 ng of p24) and viral replication quantified weekly by qPCR for up to 16 weeks.
Methods: Thirty-two BLT mice were infected with HIV-1. 12 weeks later mice were split in 4 groups (n=8), treated with various regimen and analyzed for 6 weeks. Group A received both vehicles for 4 weeks. Group B received Debio-1143 (100 mg/kg; QD1-5, p.o.) for 4 weeks (Debio-1143 was given 5 days a week for 4 weeks). Group C received the anti-PD-1 antibody (200 μg/dose, i.p., BIW) for 4 weeks. Group D received the combination of Debio-1143 (100 mg/kg; QD1-5, p.o.) together with the anti-PD-1 antibody (200 μg/dose i.p. BIW) for 4 weeks. Body weight, HIV-1 loads and PD-1 expression on CD8+ T cells were analyzed once weekly. After the 4 weeks of treatment, three mice per group were sacrificed for bioanalytical assessments. The remaining mice (4×5=20) were sacrificed 2 weeks after treatment completion and viral RNA levels in organ reservoirs (spleen, thymic organoid, lung, spleen, lymph nodes and liver) were quantified by qPCR.

CN[C@@H](C)C(=O)N[C@H]1CN(C(=O)CC(C)C)CC[C@H]2CC[C@@H](C(=O)NC(c3ccccc3)c3ccccc3)N2C1=O [Debio 1143, (5S,8S,10aR)-N-benzhydryl-5-((S)-2-(methylamino)propanamido)-3-(3-methylbutanoyl)-6-oxodecahydropyrrolo[1,2-a][1,5]diazocine-8-carboxamide]
degree of HIV reactivation, comparison of cell lines ([1]; 2D10 cells compared to the two other cell lines): shows the best degree of HIV reactivation | influence of ART on the degree of latency reversal ([1]; in combination with ART (20 μM TDF, 10 μM FTC, 1 μM RAL), added simultaneously): does not influence | HIV reactivation (% GFP+ cells) ([1]; single agent, 0 to 20.5 μM, 72 h, JLat 10.6-GFP, 2D10 and 5A8 cells): possesses the capacity of activating latent HIV | influence of ART on the degree of latency reversal ([2]; in combination with ART (20 μM TDF, 10 μM FTC, 1 μM Raltegravir)): did not influence | time after which reactivation was already maximal ([2]; resting CD4+ T cells from two HIV patients under ART): ≤ 24 h | reactivation of latent HIV (HIV RNA copies/mL in supernatant) ([2]; resting CD4+ T cells from two HIV patients under ART, 0 to 20.5 μM, 0-72 h): possesses the capacity of reactivating latent HIV | HIV load in organs (viral RNA levels in organ reservoirs) (HIV-1 (JR-CSF); 2 weeks after treatment completion, CD4+ cells of spleen, thymic organoid, lung, lymph nodes, liver): has no effect | Tissue HIV Load at Week 18, Liver (HIV-1 (JR-CSF); individual mice #1-5): 5.2 Log Viral RNA Copies/100,000 CD4+ Cells and 4.2 Log Viral RNA Copies/100,000 CD4+ Cells and 4.9 Log Viral RNA Copies/100,000 CD4+ Cells and 5.5 Log Viral RNA Copies/100,000 CD4+ Cells and 5.9 Log Viral RNA Copies/100,000 CD4+ Cells | Tissue HIV Load at Week 18, Lung (HIV-1 (JR-CSF); individual mice #1-5): 3.9 Log Viral RNA Copies/100,000 CD4+ Cells and 5.7 Log Viral RNA Copies/100,000 CD4+ Cells and 4.4 Log Viral RNA Copies/100,000 CD4+ Cells and 6.1 Log Viral RNA Copies/100,000 CD4+ Cells and 6.5 Log Viral RNA Copies/100,000 CD4+ Cells | Tissue HIV Load at Week 18, Lymph nodes (HIV-1 (JR-CSF); individual mice #1-5): 4.4 Log Viral RNA Copies/100,000 CD4+ Cells and 5 Log Viral RNA Copies/100,000 CD4+ Cells and 5.3 Log Viral RNA Copies/100,000 CD4+ Cells and 6.3 Log Viral RNA Copies/100,000 CD4+ Cells and 7.2 Log Viral RNA Copies/100,000 CD4+ Cells | Tissue HIV Load at Week 18, Spleen (HIV-1 (JR-CSF); individual mice #1-5): 4.4 Log Viral RNA Copies/100,000 CD4+ Cells and 6.4 Log Viral RNA Copies/100,000 CD4+ Cells and 5.2 Log Viral RNA Copies/100,000 CD4+ Cells and 5.5 Log Viral RNA Copies/100,000 CD4+ Cells and 6.7 Log Viral RNA Copies/100,000 CD4+ Cells | Tissue HIV Load at Week 18, Thymic organoid (HIV-1 (JR-CSF); individual mice #1-5): 4.6 Log Viral RNA Copies/100,000 CD4+ Cells and 5.3 Log Viral RNA Copies/100,000 CD4+ Cells and 3.9 Log Viral RNA Copies/100,000 CD4+ Cells and 5.7 Log Viral RNA Copies/100,000 CD4+ Cells and 6.2 Log Viral RNA Copies/100,000 CD4+ Cells | Tissue HIV Load at Week 18, Liver (HIV-1 (JR-CSF); mean of 5 mice): 5.14 Log Viral RNA Copies/100,000 CD4+ Cells | Tissue HIV Load at Week 18, Lung (HIV-1 (JR-CSF); mean of 5 mice): 5.32 Log Viral RNA Copies/100,000 CD4+ Cells | Tissue HIV Load at Week 18, Lymph nodes (HIV-1 (JR-CSF); mean of 5 mice): 5.64 Log Viral RNA Copies/100,000 CD4+ Cells | Tissue HIV Load at Week 18, Spleen (HIV-1 (JR-CSF); mean of 5 mice): 5.64 Log Viral RNA Copies/100,000 CD4+ Cells | Tissue HIV Load at Week 18, Thymic organoid (HIV-1 (JR-CSF); mean of 5 mice): 5.14 Log Viral RNA Copies/100,000 CD4+ Cells
